Among the data in publication PMC12324462 (bioRxiv, 2025) are IC50 values, retold here.

pIC50: −log10 of the molar value.

The target in the experiment is CDK9 (Homo sapiens, UniProt P50750). The experiment in a line: in vitro kinase assay. Type of experiment: biochemical.
Chain of CDK9 (P50750 whole entry): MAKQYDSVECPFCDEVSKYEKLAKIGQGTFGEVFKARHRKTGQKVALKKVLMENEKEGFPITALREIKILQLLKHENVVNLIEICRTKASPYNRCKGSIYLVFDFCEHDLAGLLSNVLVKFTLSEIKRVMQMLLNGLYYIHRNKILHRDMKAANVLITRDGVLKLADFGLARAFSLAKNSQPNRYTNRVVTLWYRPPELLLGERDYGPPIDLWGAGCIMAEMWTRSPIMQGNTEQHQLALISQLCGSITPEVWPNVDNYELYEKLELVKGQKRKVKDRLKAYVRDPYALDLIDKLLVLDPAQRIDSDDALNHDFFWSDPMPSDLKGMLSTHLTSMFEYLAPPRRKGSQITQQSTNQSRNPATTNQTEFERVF

As usually defined, the pIC50 is −log10 of the IC50, conventionally taken in molar units. Consider `Cc1cc(O)c(-c2ccc([C@@H](C)CN(C)C)cc2)c2c1[nH]c(=O)c1sccc12` [OTS964], for which the pIC50 is 6.19.
